# Results taken from patent publication US12090146B2, “Substituted-pyridinyl compounds and uses thereof” (Bionomics Limited, priority 2018, dated 2024).
# Biological target: T1, hKv3.1 (Homo sapiens, UniProt P48547)
# T1 construct: expressed in transfected cells
# T1 sequence (P48547 1-511): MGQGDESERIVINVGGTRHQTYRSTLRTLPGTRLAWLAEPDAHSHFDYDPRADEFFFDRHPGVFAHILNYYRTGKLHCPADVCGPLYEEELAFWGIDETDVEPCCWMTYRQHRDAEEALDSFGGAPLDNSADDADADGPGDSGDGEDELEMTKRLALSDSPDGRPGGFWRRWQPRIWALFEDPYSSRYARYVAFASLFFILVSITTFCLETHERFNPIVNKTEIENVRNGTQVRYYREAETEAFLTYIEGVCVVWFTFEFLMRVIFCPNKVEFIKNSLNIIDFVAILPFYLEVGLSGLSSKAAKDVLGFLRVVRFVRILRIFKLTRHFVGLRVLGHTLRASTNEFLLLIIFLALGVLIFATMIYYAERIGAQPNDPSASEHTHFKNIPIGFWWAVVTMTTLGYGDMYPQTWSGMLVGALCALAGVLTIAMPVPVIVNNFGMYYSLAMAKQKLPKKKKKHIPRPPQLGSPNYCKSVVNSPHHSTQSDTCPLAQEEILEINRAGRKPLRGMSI
# Assay: Automated patch clamp (Patchliner) whole-cell electrophysiology, Kv3.1
# Type: cell-based
# Conditions: 10 μM compound, CHO-K1 cells stably expressing hKv3.1; for Kv3.1 Activity at 10 μM Potentiation (%): % potentiation of peak current at −10 mV voltage step vs vehicle; for Kv3.1 Activity at 10 μM Voltage Shift (mV): voltage shift of the IV curve at V1/2
# Protocol: hKv3.1, hKv3.2, hKv3.3, and hKv3.4 were stably expressed in CHO-K1 (Chinese hamster ovary) cells and kept under constant antibiotic selection. For in vitro assays, cells were maintained in appropriate growth medium at 37° C. and 5% CO2 in a humidified incubator.
# hKv3.X expressing cells were plated in T-25 flasks for 3-4 days at 37° C. (no selection antibiotic) prior to use and grown to 80% confluence. Cells were washed twice with PBS (calcium and magnesium free) and detached with a 5-minute treatment at 37° C. with 2-3 mls of Accutase®. Cells were collected, and flask was washed in CHO-SFM II media (Life Technologies Gibco), centrifuged for 2 minutes at ˜110×g and resuspended to obtain a single cell suspension of ˜2-3×10^6 cells/ml.
# The intracellular solution contained the following (in mM): KCl 50, NaCl 10, KF 60, EGTA 20, HEPES 10, adjusted to pH 7.2 with KOH and an osmolarity of 285 mOsmol. Seal enhancer was purchased from Nanion (80 mM NaCl, 3 mM KCl, 10 mM MgCl2, 35 mM CaCl2), 10 mM HEPES, pH7.4, 298 mOsmol. The external solution contained (in mM): NaCl 140, KCl 4, CaCl2) 2, MgCl2 1, HEPES 10, Glucose 5, adjusted to pH7.4 and an osmolarity of 298 mOsmol.
# All compounds were initially tested at 10 uM at a final DMSO concentration of 0.33%. Compounds were dissolved in dimethylsulfoxide (DMSO) at a stock concentration of 30 mM. The compound was further diluted 1:10 to give a stock concentration of 3 mM in DMSO. The final assay solution was diluted 1:300 in External solution to give a final concentration of 10 uM. For the DMSO Control Buffer 30 uL of DMSO was added to 10 mL buffer.
# All electrophysiological recordings were performed at ambient temperature (21-23° C.) using automated patch clamp (Patchliner, Nanion Technologies GmbH) in the whole-cell configuration.
# Cell membrane potentials were held at −80 mV, and currents were evoked by voltage steps (1000 ms duration) from −60 to +60 mV in 10 mV increments. This was performed first with vehicle (0.33% DMSO) and then with 10 uM compound, after a 3-minute incubation period. Data was taken from 4 cells per assay.
# The recordings were analysed and selected using peak current amplitude (>100 pA at the −10 mV voltage step) in the absence of compound to eliminate unsuitable cells from analysis. Peak current amplitude was measured and recorded for each voltage step and data was normalised to the maximum current at +60 mV. The normalised Kv3.x currents following addition of the compound were then compared with the currents recorded prior to compound addition (vehicle control). Positive modulation was determined as % potentiation at the voltage step of −10 mV=[current (cmpd)/current (veh)]*100−100. % potentiation ≥50% was considered acceptable. In addition, voltage shift of the IV curve at V1/2 was measured. V1/2 of ≥−5 mV was also considered acceptable. IV curves were plotted in GraphPad Prism (software version 6.0) and fitted with a Boltzmann equation, where V1/2 is the voltage at half-maximal activation.
Kv3.1 Activity at 10 μM Potentiation (%),Kv3.1 Activity at 10 μM Voltage Shift (mV),SMILES
6,−3.31,"CC[C@@]1(C)NC(=O)N(c2ccnc(Oc3ccc(C)c(F)c3)c2)C1=O [Example 12, (5R)-5-ethyl-3-[2-(3-fluoro-4-methyl-phenoxy)-4-pyridyl]-5-methyl-imidazolidine-2,4-dione]"
3,−0.9,"CC[C@@]1(C)NC(=O)N(c2ccnc(Oc3ccc(Cl)c(OC)c3)c2)C1=O [Example 15, (5R)-5-ethyl-3-[2-(3-methoxy-4-chloro-phenoxy)-4-pyridyl]-5-methyl-imidazolidine-2,4-dione]"
28,−3.12,"CC[C@@]1(C)NC(=O)N(c2ccnc(Oc3ccc(C)c(C)c3)c2)C1=O [Example 17, (5R)-3-[2-(3,4-dimethylphenoxy)-4-pyridyl]-5-ethyl-5-methyl-imidazolidine-2,4-dione]"
35,−0.4,"CC[C@@]1(C)NC(=O)N(c2ccnc(Oc3ccc4c(c3)OCCC4)c2)C1=O [Example 19, (5R)-3-(2-chroman-7-yloxy-4-pyridyl)-5-ethyl-5-methyl-imidazolidine-2,4-dione]"
30,0.77,"CC[C@H]1NC(=O)N(c2ccnc(Oc3ccc(C)c(OC)c3)c2)C1=O [Example 23, (5R)-5-ethyl-3-[2-(3-methoxy-4-methyl-phenoxy)-4-pyridyl]imidazolidine-2,4-dione]"
12,−0.63,"Cc1ccc(Oc2cc(N3C(=O)NC4(CCCCC4)C3=O)ccn2)cc1OC(F)(F)F [Example 29, 3-[2-[4-methyl-3-(trifluoromethoxy)phenoxy]-4-pyridyl]-1,3-diazaspiro[4.5]decane-2,4-dione]"
19,−2.06,"COc1cc(Oc2cc(N3C(=O)NC4(CCOCC4)C3=O)ccn2)ccc1C [Example 32, 3-[2-(3-methoxy-4-methyl-phenoxy)-4-pyridyl]-8-oxa-1,3-diazaspiro[4.5]decane-2,4-dione]"
48,−2.8,"CC[C@H]1NC(=O)N(c2cncc(Oc3ccc(C)c(OC)c3)c2)C1=O [Example 38, (5R)-5-ethyl-3-[5-(3-methoxy-4-methyl-phenoxy)-3-pyridyl]imidazolidine-2,4-dione]"
78,−4.77,"CC[C@@]1(C)NC(=O)N(c2cncc(Oc3ccc(C)c(OC)c3)c2)C1=O [Example 40, (5R)-5-ethyl-3-[5-(3-methoxy-4-methyl-phenoxy)-3-pyridyl]-5-methyl-imidazolidine-2,4-dione]"
25,−3.07,"CC[C@H]1NC(=O)N(c2cc(Oc3ccc4ccccc4c3)ccn2)C1=O [Example 42, (5R)-5-ethyl-3-[4-(2-naphthyloxy)-2-pyridyl]imidazolidine-2,4-dione]"
29,−1.49,"CC(C)c1cc(Oc2ccnc(N3C(=O)NC(C)(C)C3=O)c2)ccc1C#N [Example 47, 4-[[2-(4,4-dimethyl-2,5-dioxo-imidazolidin-1-yl)-4-pyridyl]oxy]-2-isopropyl-benzonitrile]"
7,−1.99,"CC[C@H]1NC(=O)N(c2cccc(Oc3ccc(OC)c(C)c3)n2)C1=O [Example 51, (5R)-5-ethyl-3-[6-(4-methoxy-3-methyl-phenoxy)-2-pyridyl]imidazolidine-2,4-dione]"
14,−3.5,"CC[C@H]1NC(=O)N(c2cccc(Oc3cc(OC)ccc3C)n2)C1=O [Example 52, (5R)-5-ethyl-3-[6-(5-methoxy-2-methyl-phenoxy)-2-pyridyl]imidazolidine-2,4-dione]"
11,−1.69,"CC[C@H]1NC(=O)N(c2cccc(Oc3cc(C)cc(OC)c3)n2)C1=O [Example 54, (5R)-5-ethyl-3-[6-(5-methoxy-3-methyl-phenoxy)-2-pyridyl]imidazolidine-2,4-dione]"
11,−1.41,"CC[C@H]1NC(=O)N(c2cccc(Oc3cccc(OC)c3)n2)C1=O [Example 55, (5R)-5-ethyl-3-[6-(3-methoxy-phenoxy)-2-pyridyl]imidazolidine-2,4-dione]"
19,−2.7,"CC[C@H]1NC(=O)N(c2cccc(Oc3cccc(C)c3OC)n2)C1=O [Example 56, (5R)-5-ethyl-3-[6-(2-methoxy-3-methyl-phenoxy)-2-pyridyl]imidazolidine-2,4-dione]"
−23,2.18,"CC[C@H]1NC(=O)N(c2cccc(Oc3ccc(C#N)cc3C(C)(C)C)n2)C1=O [Example 57, 3-tert-butyl-4-[[6-[(4R)-4-ethyl-2,5-dioxo-imidazolidin-1-yl]-2-pyridyl]oxy]benzonitrile]"
10,−1.95,"CC[C@@]1(C)NC(=O)N(c2cccc(Oc3ccc(F)c(OC)c3)n2)C1=O [Example 59, (5R)-5-ethyl-3-[6-(4-fluoro-3-methoxy-phenoxy)-2-pyridyl]-5-methyl-imidazolidine-2,4-dione]"
51,−3.45,"CC[C@@]1(C)NC(=O)N(c2cccc(Oc3ccc(F)c(C)c3)n2)C1=O [Example 60, (5R)-5-ethyl-3-[6-(4-fluoro-3-methyl-phenoxy)-2-pyridyl]-5-methyl-imidazolidine-2,4-dione]"
46,−3.55,"CC[C@@]1(C)NC(=O)N(c2cccc(Oc3ccc4c(c3)CCC4)n2)C1=O [Example 61, (5R)-5-ethyl-3-(6-indan-5-yloxy-2-pyridyl)-5-methyl-imidazolidine-2,4-dione]"
57,−4.05,"CC[C@@]1(C)NC(=O)N(c2cccc(Oc3ccc(Cl)c(OC)c3)n2)C1=O [Example 62, (5R)-3-[6-(4-chloro-3-methoxy-phenoxy)-2-pyridyl]-5-ethyl-5-methyl-imidazolidine-2,4-dione]"
15,−2.57,"CC[C@@]1(C)NC(=O)N(c2cccc(Oc3ccc4c(c3)OCCC4)n2)C1=O [Example 64, (5R)-3-(6-chroman-7-yloxy-2-pyridyl)-5-ethyl-5-methyl-imidazolidine-2,4-dione]"
22,−3.79,"CC[C@@]1(C)NC(=O)N(c2cccc(Oc3ccc(C)c(C)c3)n2)C1=O [Example 65, (5R)-3-[6-(3,4-dimethylphenoxy)-2-pyridyl]-5-ethyl-5-methyl-imidazolidine-2,4-dione]"
